In patent US20260146991A1, “COMPOSITION AND METHODS OF AGING-RELATED AGENT SCREENING AND TARGET ANALYSIS” (Centre for Translational Stem Cell Biology Limited, priority 2022, published 2026):
Entries after “also recorded” stand apart in the source; their conditions may differ.

Assays:
[1] = background; cited from earlier work
model organisms = details: yeast, worms, flies, male mice; background; cited from earlier work
[2] = test system: TSCs differentiating towards STBs; experiment: Cell morphology, viability and proliferation during TSC-STB differentiation; assay type: cell-based, human; details: for morphology: appearance of multinucleated STB cells: treated cells during TSC-STB differentiation, FIG. 4E
Method: (§1) To generate the hTSC cell lines, the single cell suspension of hEPSCs were plated on a 6-well plate (1-2×10^3/well) pre-coated with 10 mg/mL Geltrex™ LDEV-Free Reduced Growth Factor Basement Membrane Matrix or Matrigel and cultured in human trophoblast stem cell medium (hTSCM) for 7-10 days. Then single colonies of the differentiated cells on the 6-well plate were picked and expanded. The expanded cell lines were validated with trophoblast markers and RNA-Seq analysis. The established TSC cell lines were maintained in the hTSCM medium and passaged at ratio 1:4-1:5 every 3-5 days. The hTSCM was DMEM/F12 based medium supported with: 110 μM β-mercaptoethanol, 0.2% FBS, 0.5% Penicillin-Streptomycin-Glutamine, 0.3% BSA, 1×ITS-X supplement, 50.0 μg/mL Vc, 50.0 ng/ml EGF, 2.0 μM CHIR99021, 0.5 μM A83-01, 1.0 μM SB431542, 0.8 μM VPA, and 5.0 μM Y27632. Established TSC cells were seeded at 1.0×10^5-2×10^5 cells per well in a six-well plate pre-coated with 10 mg/mL Geltrex™ LDEV-Free Reduced Growth Factor Basement Membrane Matrix or Matrigel, and were induced to differentiate into STBs after culturing in syncytiotrophoblasts medium (STBM) for around 6 days. The STBM comprises: DMEM/F12 supplemented with 110 μM β-mercaptoethanol, 0.5% Penicillin-Streptomycin, 0.3% BSA, 1×ITS-X, 2.5 μM Y27632, 2 μM Forskolin, and 4% KnockOut Serum Replacement. The cells became early syncytiotrophoblasts on day 2-3, and mature syncytiotrophoblasts around day 6.
(§2) Same number of TSCs in robust growing state were seeded in STBM with/without a candidate agent in a black Polystyrene TC-treated 96-well Microplate pre-coated with 10 mg/ml Geltrex™ LDEV-Free Reduced Growth Factor Basement Membrane Matrix or Matrigel (1.5×10^4-2×10^4 cells per well). On each screening microplate, 3 wells of control (cells only with 0.5% DMSO in 100 μL STB growth medium) and 3 wells of positive control (some well-known anti-ageing agents in certain concentration) were included. The cells were cultured at 37° C. and 5% CO2 with saturating humidity and differentiated into mature STB in the medium for 6 days. Cell morphology was monitored daily under a microscope. The signal readouts of reporter molecules was assessed on day 2, day 4, and day 6. On day 6, cells in each well were fixed and stained with DAPI or Hoechst, and cell count and intensity (both reporter and nuclei) were assessed using high content microscopy to assess the agent's effects and cell viability. The agents, especially those that affect cell viability will also be tested at different concentrations and at different day during the STB differentiation process.
(§3) First, a known anti-aging drug Rapamycin was tested. TSCs in good growing state were seeded at 1.0×10^4-2×10^4 cells per well in a 24-well plate pre-coated with 10 mg/mL Geltrex™ LDEV-Free Reduced Growth Factor Basement Membrane Matrix or Matrigel. After 24 hours, 3 wells continued in TSCM; 3 wells switched to STBM+DMSO; 3 wells switched to STBM+Rapamycin (500 nM). The media was changed every 2-3 days. On day 6, β-hCG was measured by ELISA as described in Example 1. Expression of aging-related marker genes (e.g., CGA and CGB3) was measured by RT-qPCR as described in Example 1.

[3] = test system: TSCs differentiating towards STBs; experiment: RT-qPCR of aging-related marker genes during TSC-STB differentiation; assay type: cell-based, human; details: FIG. 4H
Method: as §1
RT-qPCR: Total RNA was extracted using RNeasy Mini Kit (Qiagen) per manufacturer specification. Extracted RNA was then reverse transcribed to cDNA using Fastking gDNA diselling RT SuperMix (Tiangen). Gene expression was measured using PowerUp™ SYBR™ Green Master Mix (Applied Biosystems) and StepOnePlus™ Real-Time PCR (Applied Biosystems) with the primers listed in Table E1A. Raw gene expression data was normalized to GAPDH by using the ΔCt method. Statistical analysis was carried out using either one/two-tailed student's t-test in Prism 8 (GraphPad).
as §3

TSC-STB differentiation = experiment: TSC-STB system, overall evaluation of anti-aging effect; assay type: cell-based, human; details: summary statement
Method: as §2, §3

[4] = test system: TSCs differentiating towards STBs; experiment: Western blot of β-hCG during TSC-STB differentiation; assay type: cell-based, human; details: at certain / different concentrations, FIG. 4I
Method: Western blot: The proteins were extracted with RIPA lysis (thermofisher, Cat. 89901) and Pierce Protease Inhibitor Mini Tablets (thermofisher, Cat. A32953). Protein concentrations were measured with Pierce™ BCA Protein Assay Kits (thermofisher, Cat. 23227). Then samples with certain amount of NuPAGE™ LDS Sample Buffer (4×) (thermofisher, Cat. NP0008) were boiled at 70 degree for 10 min. Boiled samples were loaded with the same amount and separated in 12% polyacrylamide gels (Thermofisher Cat. NP0343BOX) and transferred to PVDF membranes using the Bio-Rad transblot turbo system according to the manufacturer's guidance. Images were developed by the ChemiDoc Imaging System and processed with ImageJ 1.47v. The following primary antibodies were used: anti-GAPDH (thermosfisher, Cat. AM4300, 1:10000 for western blot), anti-Ki67 (thermofisher, Cat. MA5-14520, 1:1000 for western blot, 1:200 for IF), anti-HERVK-gag (Austral Biologicals, Cat. HERM-1811-5, 1:200 for IF), anti-TRF1 (Abcam, Cat. ab 10579, 1:100 for IF), anti-ZO-1 (CST, Cat. 13663, 1:200 for IF), anti-CGB3 (Abcam, Cat. Ab131170, 1:200 for IF), anti-H3 (CST, Cat. 4499 1:2000 for western blot), anti-H3K9mc3 (Abcam, Cat. ab8898, 1:1000 for western blot), anti-E-cadherin (CST, Cat. 14472, 1:200 for IF), anti-p38 MAPK (thermofisher, Cat. 338700, 1:1000 for western blot), anti-LaminB1 (thermofisher, Cat. 702972, 1:1000 for western blot, 1:200 for IF), anti-p27 Kip1 (thermofisher, Cat. PA527188, 1:1000 for western blot), anti-Hp1 gamma (thermofisher, Cat. MA3054, 1:1000 for western blot, 1:300 for IF), anti-SIRT1 (CST, Cat. 8469S, 1:1000 for western blot), anti-SIRT6 (CST, Cat. 12486S, 1:1000 for western blot), anti-SIRT3 (thermofisher, Cat. MA514910, 1:1000 for western blot), anti-p53 (thermofisher, Cat. MA512557, 1:1000 for western blot, 1:200 for IF), anti-gammaH2AX (CST, Cat. 2577s, 1:1000 for western blot, 1:200 for IF), anti-IL-6 (thermofisher, Cat. MA523698, 1:50 for IF), anti-hCG (thermofisher, Cat. 14-6508-82, 1:1000 for western blot, 1:200 for IF). […]

[5] = test system: TSCs differentiating towards STBs; experiment: ELISA of secreted β-hCG during TSC-STB differentiation; assay type: cell-based, human; details: compared to the DMSO control group; FIG. 4F
Method: as §1, with “The STBM comprises: DMEM/F12 supplemented with 110 μM β-mercaptoethanol, 0.5% Penicillin-Streptomycin, 0.3% BSA, 1×ITS-X, 2.5 μM Y27632, 2 μM Forskolin, and 4% KnockOut Serum Replacement. The cells became early syncytiotrophoblasts on day 2-3, and mature syncytiotrophoblasts around day 6.” left out
First, a known anti-aging drug Rapamycin was tested. […] On day 6, β-hCG was measured by ELISA as described in Example 1. Expression of aging-related marker genes (e.g., CGA and CGB3) was measured by RT-qPCR as described in Example 1.

Row | Compound | morphology: appearance of multinucleated STB cells [2] | CGA expression ([3]; 1 μM) | CGA expression ([3]; 10 μM) | anti-aging effect in the TSC-STB system (TSC-STB differentiation) | further results
1 | CC(C)Cc1ccc(C(C)C(=O)O)cc1 (centres unmarked) [ibuprofen] | – | – | – | – | side effects in humans [1]: major bleeding events and increase in all-cause mortality; lifespan in some model organisms (model organisms): extend lifespan
2 | STM2457 | delayed appearance of multinucleated STB cells | – | – | – | –
3 | Cc1ccc(-c2cc(C(F)(F)F)nn2-c2ccc(S(N)(=O)=O)cc2)cc1 [celecoxib] | – | – | – | – | side effects in humans [1]: major bleeding events and increase in all-cause mortality
4 | NCCCCNCCCN [Spermdine] | – | decrease | decrease | – | –
5 | O=c1c(O)c(-c2ccc(O)c(O)c2)oc2cc(O)ccc12 [Fisetin] | – | reduced | increasing | showed anti-aging effects as expected | β-hCG expression (Western blot) [4]: reduced; β-hCG expression (Western blot) ([4]; listed as Fisctin): significantly reduce
6 | CC(C)n1nc(-c2ccc3oc(N)nc3c2)c2c(N)ncnc21 [INK128] | delayed appearance of multinucleated STB cells | – | – | – | secreted β-hCG level (ELISA) [5]: significantly lower; β-hCG expression (Western blot) [4]: significantly reduce; also recorded: reduced
7 | NC(=O)c1ccc[n+]([C@@H]2O[C@H](COP(=O)([O-])O)[C@@H](O)[C@H]2O)c1 [NMN, Nicotinamide mononucleotide] | – | reduced | increasing | showed anti-aging effects as expected | –
8 | CC(C)C[C@H](NC(=O)OCc1ccccc1)C(=O)N[C@@H](C[C@@H]1CCNC1=O)C(O)S(=O)(=O)[O-].[Na+] (some centres unmarked) [GC376] | delayed appearance of multinucleated STB cells | – | – | – | –
9 | CC(=O)Oc1ccccc1C(=O)O [aspirin] | – | – | – | – | side effects in humans [1]: increase the risk of gastrointestinal bleeding; lifespan in some model organisms (model organisms): extend lifespan
10 | CC(C)C(=O)OC[C@H]1O[C@@H](n2ccc(NO)nc2=O)[C@H](O)[C@@H]1O [Molnupiravir] | delayed appearance of multinucleated STB cells | – | – | – | –
11 | CO[C@H]1C[C@@H]2CC[C@@H](C)[C@@](O)(O2)C(=O)C(=O)N2CCCC[C@H]2C(=O)O[C@H]([C@H](C)C[C@@H]2CC[C@@H](O)[C@H](OC)C2)CC(=O)[C@H](C)/C=C(\C)[C@@H](O)[C@@H](OC)C(=O)[C@H](C)C[C@H](C)/C=C/C=C/C=C/1C [Rapamycin] | – | – | – | – | cell viability or proliferation ([2]; 500 nM, FIG. 4A): did not affect
12 | O=c1c(O)c(-c2ccc(O)c(O)c2)oc2cc(O)cc(O)c12 [Quercetin] | – | decrease | decrease | showed anti-aging effects as expected | –
13 | CN(C)C(=N)N=C(N)N [metformin] | – | – | – | showed anti-aging effects as expected | –
